Measured values as given in patent US20250295646A1, “METHODS OF USE OF T-TYPE CALCIUM CHANNEL MODULATORS” (Praxis Precision Medicines, Inc., priority 2022, published 2025).

Legend:
[1] = Phase 1 single ascending dose (Part A) pharmacokinetics of 20 mg tablet formulation 3; conditions: human, in vivo, oral, single 60 mg, geometric mean
Protocol: This was a 2-part, Phase 1 double blind, placebo controlled trial to assess the safety, tolerability, pharmacokinetics, and pharmacodynamics (including the KSS, the KDT, the SQSQ and 24-hour EEG recordings), of single, ascending (Part A: 20, 40, and 60 mg) and multiple, ascending (Part B: 20 and 40 mg for 8 days) doses of the 20 mg tablet (formulation 3) in healthy participants. […] Variability in Cmax and AUC increased with increasing dose following a single oral dose of the 20 mg tablet formulation (formulation 3) (FIG. 16).

[2] = Within-participant escalating dose trial Part A: safety and tolerability; type: in vivo, human; conditions: N = 8
Protocol: (§1) In Part A, an open label trial was conducted.

[3] = Within-participant escalating dose trial Part B: safety and tolerability; type: in vivo, human; conditions: for dose levels well-tolerated with titration: titrated dosing schedule, per day
[4] = system: adult patients with essential tremor; assay: Essential tremor trial Example 16 Part A (open label 20-40 mg): TETRAS efficacy; type: in vivo, human; conditions: for TETRAS CULS Score CFB LS Mean / TETRAS PS Item 6: Archimedes Spiral (Left) Score CFB LS Mean / TETRAS PS Item 6: Archimedes Spiral (Right) Score CFB LS Mean / TETRAS PS Item 7: Handwriting Score CFB LS Mean / TETRAS PSTS Score CFB LS Mean / TETRAS ULS Score CFB LS Mean / TETRAS CULS CTA LS Mean % / TETRAS PS Item 6: Archimedes Spiral (Left) CTA LS Mean % / TETRAS PS Item 6: Archimedes Spiral (Right) CTA LS Mean % / TETRAS PS Item 7: Handwriting CTA LS Mean % / TETRAS PSTS CTA LS Mean % / TETRAS ULS CTA LS Mean %: FAS
Protocol: A two part trial (Part A and Part B as described below) was conducted to study the efficacy, safety, tolerability, and pharmacokinetics of the compound of formula (I) in adult patients with essential tremor (ET).
Participants were males and females ages 18 and older with a clinical diagnosis of ET. Participants who have a history of any other medical, neurological, or psychiatric condition that may explain or cause tremor were excluded. Participants who have previously received treatment with formula (I) in any clinical trial (including Part A of the current trial for participants enrolling in Part B) were also excluded.
as §1

hCav3.3 = molecular target: T1, hCav3.3 (Homo sapiens, UniProt Q9P0X4); assay: PatchXpress patch clamp, voltage dependent block (half-inactivated state); type: cell-based
T1 construct: expressed in transfected cells; host or cells: HEK-293
T1 sequence (Q9P0X4 whole entry): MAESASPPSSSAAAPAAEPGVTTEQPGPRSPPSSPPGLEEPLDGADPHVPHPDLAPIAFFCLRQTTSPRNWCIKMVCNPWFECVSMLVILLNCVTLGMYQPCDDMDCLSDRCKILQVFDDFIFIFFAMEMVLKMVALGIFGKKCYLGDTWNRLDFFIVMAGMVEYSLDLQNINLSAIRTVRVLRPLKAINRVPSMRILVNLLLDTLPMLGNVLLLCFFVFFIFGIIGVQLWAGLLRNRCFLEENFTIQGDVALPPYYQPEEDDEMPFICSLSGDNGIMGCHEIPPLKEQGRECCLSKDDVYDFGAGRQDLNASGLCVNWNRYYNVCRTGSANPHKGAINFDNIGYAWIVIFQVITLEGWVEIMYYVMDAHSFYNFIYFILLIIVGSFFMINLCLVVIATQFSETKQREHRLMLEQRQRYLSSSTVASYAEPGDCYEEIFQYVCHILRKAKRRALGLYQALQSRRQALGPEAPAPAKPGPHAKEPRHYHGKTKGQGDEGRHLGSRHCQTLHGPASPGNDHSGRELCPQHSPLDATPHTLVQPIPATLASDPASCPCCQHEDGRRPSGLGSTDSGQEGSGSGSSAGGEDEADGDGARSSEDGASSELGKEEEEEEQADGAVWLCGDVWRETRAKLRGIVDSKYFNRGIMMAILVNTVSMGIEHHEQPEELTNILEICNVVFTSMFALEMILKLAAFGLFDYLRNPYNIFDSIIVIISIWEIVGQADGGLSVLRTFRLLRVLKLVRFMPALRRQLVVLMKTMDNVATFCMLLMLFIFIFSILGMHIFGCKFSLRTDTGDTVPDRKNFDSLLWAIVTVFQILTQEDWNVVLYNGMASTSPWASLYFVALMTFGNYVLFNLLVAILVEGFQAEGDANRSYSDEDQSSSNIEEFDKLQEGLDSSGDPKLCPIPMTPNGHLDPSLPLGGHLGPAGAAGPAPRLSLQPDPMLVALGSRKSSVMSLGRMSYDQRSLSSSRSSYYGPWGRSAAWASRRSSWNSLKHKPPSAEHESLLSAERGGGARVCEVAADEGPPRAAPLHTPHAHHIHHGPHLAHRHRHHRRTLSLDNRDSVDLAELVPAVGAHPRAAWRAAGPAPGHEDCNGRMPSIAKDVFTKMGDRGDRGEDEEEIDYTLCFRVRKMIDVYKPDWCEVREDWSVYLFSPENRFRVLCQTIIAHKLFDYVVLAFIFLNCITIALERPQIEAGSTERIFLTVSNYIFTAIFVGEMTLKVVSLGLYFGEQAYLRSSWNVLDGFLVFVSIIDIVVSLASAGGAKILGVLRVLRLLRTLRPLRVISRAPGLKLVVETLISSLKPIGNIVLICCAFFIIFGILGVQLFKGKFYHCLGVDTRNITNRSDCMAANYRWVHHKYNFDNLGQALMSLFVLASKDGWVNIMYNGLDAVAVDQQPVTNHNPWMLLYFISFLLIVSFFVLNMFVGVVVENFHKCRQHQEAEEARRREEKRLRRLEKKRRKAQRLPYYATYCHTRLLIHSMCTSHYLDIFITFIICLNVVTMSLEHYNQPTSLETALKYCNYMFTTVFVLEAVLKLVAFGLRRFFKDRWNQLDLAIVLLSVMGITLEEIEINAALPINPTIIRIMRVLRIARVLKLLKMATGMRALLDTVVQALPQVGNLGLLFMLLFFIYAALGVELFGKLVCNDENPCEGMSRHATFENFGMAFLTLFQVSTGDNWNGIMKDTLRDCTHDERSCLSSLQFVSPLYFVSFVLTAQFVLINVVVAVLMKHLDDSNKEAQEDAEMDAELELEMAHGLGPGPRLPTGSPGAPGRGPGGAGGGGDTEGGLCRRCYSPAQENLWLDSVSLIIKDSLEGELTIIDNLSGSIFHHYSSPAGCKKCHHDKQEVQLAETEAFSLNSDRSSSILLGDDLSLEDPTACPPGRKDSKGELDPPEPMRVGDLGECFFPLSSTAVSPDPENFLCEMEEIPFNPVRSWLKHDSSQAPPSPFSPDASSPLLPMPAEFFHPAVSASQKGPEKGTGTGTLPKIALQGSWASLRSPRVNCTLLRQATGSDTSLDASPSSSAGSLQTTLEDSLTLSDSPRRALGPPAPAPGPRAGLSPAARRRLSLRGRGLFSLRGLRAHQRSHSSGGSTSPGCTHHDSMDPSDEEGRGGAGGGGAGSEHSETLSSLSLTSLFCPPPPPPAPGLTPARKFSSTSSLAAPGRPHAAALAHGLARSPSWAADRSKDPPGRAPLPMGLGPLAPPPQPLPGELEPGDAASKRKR

[5] = system: sigma band EEG power during NREM sleep; assay: EEG/PSG: sigma band EEG power during NREM sleep; type: in vivo, human; conditions: 20 mg tablet and 40 mg tablet (FIG. 12)
[6] = Day 7, change from pre-dose baseline
[7] = Day 7, change in tremor amplitude from pre-dose baseline
[8] = Day 14, change from pre-dose baseline
[9] = Day 14, change in tremor amplitude from pre-dose baseline
[10] = Day 21 (FU Assessment), change from pre-dose baseline
[11] = Day 21 (FU Assessment), change in tremor amplitude from pre-dose baseline

With CC(C)(C)NC(=O)CN1CCC(CNC(=O)c2cc(F)cc(Cl)c2)CC1 [compound of formula (I), N-((1-(2-(tert-butylamino)-2-oxoethyl)piperidin-4-yl)methyl)-3-chloro-5-fluorobenzamide] the Cmax ([1]; N = 6) was roughly 130 ng/mL, the AUC ([1]; read-out: AUC24) was roughly 1910 ng·h/mL and the Dry eye ([2]; 5 mg) was 1 (12.5%) n (%). For the same molecule, the Eye disorders ([2]; 5 mg) was 2 (25.0%) n (%), the “General Disorders and Administration Site Conditions” value ([2]; 5 mg) was 3 (37.5%) n (%) and the Headache ([2]; 5 mg) was 2 (25.0%) n (%). For the same molecule, the Lethargy ([2]; 5 mg) was 1 (12.5%) n (%), the “Medical device site dermatitis” value ([2]; 5 mg) was 1 (12.5%) n (%) and the “Nervous System Disorders” value ([2]; 5 mg) was 2 (25.0%) n (%). For the same molecule, the “Participants with at least one TEAE” value ([2]; 5 mg) was 5 (62.5%) n (%), the “Vessel puncture site thrombosis” value ([2]; 5 mg) was 1 (12.5%) n (%) and the Dry eye ([2]; 10 mg) was 2 (25.0%) n (%). The Eye disorders ([2]; 10 mg) was 2 (25.0%) n (%), the “General Disorders and Administration Site Conditions” value ([2]; 10 mg) was 3 (37.5%) n (%) and the Headache ([2]; 10 mg) was 0 n (%). The Lethargy ([2]; 10 mg) was 0 n (%), the “Medical device site dermatitis” value ([2]; 10 mg) was 2 (25.0%) n (%) and the “Nervous System Disorders” value ([2]; 10 mg) was 0 n (%). For the same molecule, the “Participants with at least one TEAE” value ([2]; 10 mg) was 5 (62.5%) n (%), the “Vessel puncture site thrombosis” value ([2]; 10 mg) was 1 (12.5%) n (%) and the Dry eye ([2]; 20 mg) was 0 n (%). For the same molecule, the Eye disorders ([2]; 20 mg) was 0 n (%), the “General Disorders and Administration Site Conditions” value ([2]; 20 mg) was 1 (12.5%) n (%) and the Headache ([2]; 20 mg) was 1 (12.5%) n (%). For the same molecule, the “Medical device site dermatitis” value ([2]; 20 mg) was 0 n (%), the “Nervous System Disorders” value ([2]; 20 mg) was 1 (12.5%) n (%) and the “Participants with at least one TEAE” value ([2]; 20 mg) was 3 (37.5%) n (%). For the same molecule, the “Vessel puncture site thrombosis” value ([2]; 20 mg) was 0 n (%), the Dry eye ([2]; Overall 5-20 mg) was 3 (37.5%) n (%) and the Eye disorders ([2]; Overall 5-20 mg) was 3 (37.5%) n (%). The Headache ([2]; Overall 5-20 mg) was 3 (37.5%) n (%), the Lethargy ([2]; Overall 5-20 mg) was 2 (25.0%) n (%) and the “Medical device site dermatitis” value ([2]; Overall 5-20 mg) was 3 (37.5%) n (%). The “Nervous System Disorders” value ([2]; Overall 5-20 mg) was 3 (37.5%) n (%), the “Participants with at least one TEAE” value ([2]; Overall 5-20 mg) was 7 (87.5%) n (%) and the “Vessel puncture site thrombosis” value ([2]; Overall 5-20 mg) was 2 (25.0%) n (%). The “maximum tolerated dosage in the titration scheme” value ([3]; highest dose tested 120 mg) was “no maximum tolerated dosage was identified”, the “Cardiac Disorders” value ([3]; human, in vivo, 31 days) was 4 n (%) and the Chest discomfort ([3]; human, in vivo, 31 days) was 2 n (%). For the same molecule, the Dizziness ([3]; human, in vivo, 31 days) was 3 n (%), the “General Disorders and Administration Site Conditions” value ([3]; human, in vivo, 31 days) was 6 n (%) and the Headache ([3]; human, in vivo, 31 days) was 2 n (%). For the same molecule, the Intoxicated sensation ([3]; human, in vivo, 31 days) was 2 n (%), the “Medical device site dermatitis” value ([3]; human, in vivo, 31 days) was 3 n (%) and the “Nervous System Disorders” value ([3]; human, in vivo, 31 days) was 5 n (%). The Palpitations ([3]; human, in vivo, 31 days) was 2 n (%), the “Participants with at least one TEAE” value ([3]; human, in vivo, 31 days) was 12 n (%) and the “treatment related ECG or EEG abnormalities” value ([3]; in vivo) was “no treatment related ECG or EEG abnormalities”. For the same molecule, the “dose levels well-tolerated with titration” value [3] was no more than 120 mg, the “TETRAS combined upper limb score, LS mean change from pre-dose baseline” value ([4]; Day 7) was −1.667 and the “TETRAS upper limb score, LS mean change from pre-dose baseline” value (shortened to “TETRAS upper limb score, LS mean change”) ([4]; Day 7) was −1.427. For the same molecule, the “reduction in combined upper limb tremor amplitude” value ([4]; Day 7) was 16.0%, the “reduction in upper limb tremor amplitude” value ([4]; Day 7) was 23.9% and the “TETRAS combined upper limb score, LS mean change from pre-dose baseline” value ([4]; Day 14) was −4.239. For the same molecule, the “TETRAS upper limb score, LS mean change” value ([4]; Day 14) was −2.912, the “reduction in combined upper limb tremor amplitude” value ([4]; Day 14) was 35.8% and the “reduction in upper limb tremor amplitude” value ([4]; Day 14) was 42.8%. The “TETRAS combined upper limb score, LS mean change from pre-dose baseline” value ([4]; Day 21 follow-up) was −0.278, the “reduction in combined upper limb tremor amplitude” value ([4]; Day 21 follow-up) was 2.9% and the “reduction in upper limb tremor amplitude” value ([4]; Day 21 follow-up) was 20.3%. The “TETRAS upper limb score, LS mean change” value ([4]; Day 21 follow-up (1 week after cessation)) was −1.183, the “TETRAS CULS Score CFB LS Mean” value [4, 6] was −1.667 and the “TETRAS PS Item 6: Archimedes Spiral (Left) Score CFB LS Mean” value [4, 6] was −0.213. The “TETRAS PS Item 6: Archimedes Spiral (Right) Score CFB LS Mean” value [4, 6] was −0.091, the “TETRAS PS Item 7: Handwriting Score CFB LS Mean” value [4, 6] was −0.012 and the “TETRAS PSTS Score CFB LS Mean” value [4, 6] was −1.990. The “TETRAS ULS Score CFB LS Mean” value [4, 6] was −1.427, the “TETRAS CULS CTA LS Mean %” value [4, 7] was −16.0% and the “TETRAS PS Item 6: Archimedes Spiral (Left) CTA LS Mean %” value [4, 7] was −21.8%. For the same molecule, the “TETRAS PS Item 6: Archimedes Spiral (Right) CTA LS Mean %” value [4, 7] was −9.9%, the “TETRAS PS Item 7: Handwriting CTA LS Mean %” value [4, 7] was −1.4% and the “TETRAS PSTS CTA LS Mean %” value [4, 7] was −13.3%. The “TETRAS ULS CTA LS Mean %” value [4, 7] was −23.9%, the “TETRAS CULS Score CFB LS Mean” value [4, 8] was −4.239 and the “TETRAS PS Item 6: Archimedes Spiral (Left) Score CFB LS Mean” value [4, 8] was −0.468. For the same molecule, the “TETRAS PS Item 6: Archimedes Spiral (Right) Score CFB LS Mean” value [4, 8] was −0.346, the “TETRAS PS Item 7: Handwriting Score CFB LS Mean” value [4, 8] was −0.348 and the “TETRAS PSTS Score CFB LS Mean” value [4, 8] was −5.163. The “TETRAS ULS Score CFB LS Mean” value [4, 8] was −2.912, the “TETRAS CULS CTA LS Mean %” value [4, 9] was −35.8% and the “TETRAS PS Item 6: Archimedes Spiral (Left) CTA LS Mean %” value [4, 9] was −41.7%. The “TETRAS PS Item 6: Archimedes Spiral (Right) CTA LS Mean %” value [4, 9] was −32.9%, the “TETRAS PS Item 7: Handwriting CTA LS Mean %” value [4, 9] was −33.0% and the “TETRAS PSTS CTA LS Mean %” value [4, 9] was −31.0%. For the same molecule, the “TETRAS ULS CTA LS Mean %” value [4, 9] was −42.8%, the “TETRAS CULS Score CFB LS Mean” value [4, 10] was −0.278 and the “TETRAS PS Item 6: Archimedes Spiral (Left) Score CFB LS Mean” value [4, 10] was 0.201. For the same molecule, the “TETRAS PS Item 6: Archimedes Spiral (Right) Score CFB LS Mean” value [4, 10] was −0.061, the “TETRAS PS Item 7: Handwriting Score CFB LS Mean” value [4, 10] was 0.330 and the “TETRAS PSTS Score CFB LS Mean” value [4, 10] was −1.293. For the same molecule, the “TETRAS ULS Score CFB LS Mean” value [4, 10] was −1.183, the “TETRAS CULS CTA LS Mean %” value [4, 11] was −2.9% and the “TETRAS PS Item 6: Archimedes Spiral (Left) CTA LS Mean %” value [4, 11] was 20.7%. For the same molecule, the “TETRAS PS Item 6: Archimedes Spiral (Right) CTA LS Mean %” value [4, 11] was −6.7%, the “TETRAS PS Item 7: Handwriting CTA LS Mean %” value [4, 11] was 31.6% and the “TETRAS PSTS CTA LS Mean %” value [4, 11] was −8.9%. For the same molecule, the “TETRAS ULS CTA LS Mean %” value [4, 11] was −20.3%.
In the case of CC(C)(C)NC(=O)CN1CCC(CNC(=O)c2cc(F)cc(Cl)c2)CC1.Cl [compound of formula (II), N-((1-(2-(tert-butylamino)-2-oxoethyl)piperidin-4-yl)methyl)-3-chloro-5-fluorobenzamide hydrochloride], the “dose levels well-tolerated with titration” value [3] is reported as “up to 120 mg”, the “tonic block/voltage dependent block (TB/VDB) ratio” value (hCav3.3) is reported as 4.0 and the “NREM sigma band compared to placebo control” value [5] is reported as “decrease”.
